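In this assay, cells in 96-well plates receive the compound at five concentrations for 48 hours. Endpoints are linearly interpolated between the surrounding concentrations. At the GI50, growth is halved.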 Activity calls are given as the source filed them. Rule as the data show it: active = GI50 up to about 1.1 µM and inactive = higher.

Test systems include OVCAR-3; COLO 205; SNB-19; OVCAR-5; HOP-92; SN12C; HL-60; SNB-75; HCC 2998; TK-10; SF-295; DMS-114; HT-29; NCI-H226; OVCAR-8; SK-MEL-5.
Holding throughout (test): NCI-60 cell line screen, 48 h

For the molecule `O=C(N/N=C/c1ccccc1O)N/N=C/c1ccccc1O`, the GI50 with OVCAR-3, in the test on COLO 205, with SNB-19, with OVCAR-5, with HOP-92 and in the test on SN12C was > 100 µM (inactive) throughout. Besides, the GI50 in the test on HL-60, in the test on SNB-75, in the test on HCC 2998, with TK-10, in the test with SF-295 and in the test on DMS-114 was > 100 µM (inactive) in each case. Further, the GI50 with HT-29, in the test with NCI-H226 and with OVCAR-8 was > 100 µM (inactive) each time.

Take `O=C1c2ccccc2C(=O)C2C1C1C(=O)c3ccccc3C(=O)C21` (stereo not drawn): the GI50 with OVCAR-3 was 40.6 µM (inactive); in the test with COLO 205, > 100 µM (inactive); in the test with SNB-19, > 100 µM (inactive); with OVCAR-5, 42.3 µM (inactive); in the test with HOP-92, > 100 µM (inactive); in the test on SN12C it was > 100 µM (inactive). Also, the GI50 in the test on HL-60 is 58.9 µM (inactive); in the test on SNB-75, 57.4 µM (inactive); in the test on HCC 2998, 51.6 µM (inactive); with TK-10, > 100 µM (inactive); with SF-295, > 100 µM (inactive); with DMS-114, > 100 µM (inactive). The GI50 with SK-MEL-5 is 32.6 µM (inactive); with HT-29, > 100 µM (inactive); in the test with OVCAR-8 it was > 100 µM (inactive).

As to `COC(=O)C(=O)C(C(=O)C(=O)Nc1ccc(Cl)cc1C)c1nc2ccc(C(=O)c3ccccc3)cc2nc1O` (stereo not drawn), the GI50 with OVCAR-3 was > 100 µM (inactive); in the test with COLO 205, > 100 µM (inactive); with SNB-19, > 100 µM (inactive); in the test with OVCAR-5, 83 µM (inactive); with HOP-92, 49.8 µM (inactive); in the test on SN12C, > 100 µM (inactive). In addition, the GI50 was 96.6 µM (inactive) in the test on HL-60; 31.5 µM (inactive) in the test with SNB-75; 98.9 µM (inactive) in the test on HCC 2998; > 100 µM (inactive) with TK-10; > 100 µM (inactive) in the test on SF-295; 36 µM (inactive) in the test with DMS-114. Further, the GI50 is > 100 µM (inactive) with HT-29, 33.5 µM (inactive) with NCI-H226 and > 100 µM (inactive) with OVCAR-8.

For the molecule `CN1C(=O)CC2(C)c3cc(C=O)ccc3N(C)C12` (stereo not drawn), the GI50 in the test on OVCAR-3, in the test with COLO 205, with SNB-19, in the test on OVCAR-5, in the test with HOP-92 and in the test on SN12C was > 100 µM (inactive) throughout. Besides, the GI50 in the test with SNB-75 was 69.5 µM (inactive); in the test with HCC 2998, > 100 µM (inactive); in the test with TK-10, > 100 µM (inactive); in the test on SF-295, > 100 µM (inactive); with DMS-114 it was > 100 µM (inactive); in the test with SK-MEL-5 it was > 100 µM (inactive). Moreover, the GI50 with HT-29, with NCI-H226 and with OVCAR-8 was > 100 µM (inactive) throughout.

Turning to `O=c1[nH]c2c(O)cccc2c2cc3c(c(O)c12)OCO3` [NARCIPRIMINE], the GI50 in the test with OVCAR-3 was 21.5 µM (inactive); in the test on COLO 205, 13.1 µM (inactive); in the test on SNB-19, 13.6 µM (inactive); with HOP-92, 13.4 µM (inactive); with SN12C, 20.7 µM (inactive); in the test with HL-60 it was 6.44 µM (inactive). In addition, the GI50 is 20.8 µM (inactive) in the test with SNB-75; 19.5 µM (inactive) in the test with HCC 2998; 42.7 µM (inactive) with TK-10; 20.1 µM (inactive) with SF-295; 19.1 µM (inactive) in the test on DMS-114; 17.1 µM (inactive) in the test with SK-MEL-5. The results for the GI50 in the test with HT-29, with NCI-H226 and with OVCAR-8 were 21.2 µM (inactive), 17.4 µM (inactive) and 23.6 µM (inactive), respectively.

On to `COC1OCC(O)C(NC(=O)N(C)N=O)C1O` (stereo not drawn), for which the GI50 in the test on OVCAR-3, in the test on COLO 205, with SNB-19, in the test with OVCAR-5, in the test with HOP-92 and with SN12C was > 100 µM (inactive) each time. Also, the GI50 in the test with SNB-75, with HCC 2998, in the test on SF-295, in the test with DMS-114, with SK-MEL-5 and in the test on HT-29 was > 100 µM (inactive) in each case. Besides, the GI50 in the test with NCI-H226 and in the test on OVCAR-8 was > 100 µM (inactive) throughout.

For `C[C@]12CC[C@H](OC3CCCCO3)CC1=CC[C@@H]1C2CC[C@]2(C)/C(=N/O)CCC12` (stereo partly drawn), the GI50 in the test on OVCAR-3 is 17 µM (inactive); in the test with COLO 205, > 10 µM (inactive); in the test on SNB-19, 26.5 µM (inactive); in the test on OVCAR-5, 19.4 µM (inactive); with HOP-92, 23.9 µM (inactive); in the test on SN12C, 14.2 µM (inactive). For the same molecule, the GI50 with SNB-75 was 20.5 µM (inactive); in the test on HCC 2998, 17.5 µM (inactive); with TK-10 it was 30.5 µM (inactive); in the test with SF-295 it was 15.1 µM (inactive); in the test with DMS-114, 17.5 µM (inactive); in the test with SK-MEL-5, 88.9 µM (inactive). The GI50 in the test on HT-29 was 12.3 µM (inactive); in the test with OVCAR-8 it was 19.2 µM (inactive).

For `CN1Nc2ccccc2CC1=O`, the GI50 in the test on OVCAR-3, in the test with COLO 205, with SNB-19, in the test on OVCAR-5, in the test with HOP-92 and in the test on SN12C was > 100 µM (inactive) each time. The GI50 with SNB-75, in the test with HCC 2998, in the test with TK-10, in the test with SF-295, in the test on DMS-114 and with SK-MEL-5 was > 100 µM (inactive) each time. Further, the GI50 with HT-29, with NCI-H226 and in the test with OVCAR-8 was > 100 µM (inactive) throughout.

As for `COP1(=O)Oc2ccccc2C(=O)C(C(F)(F)F)(C(F)(F)F)O1` (stereo not drawn), the GI50 in the test on COLO 205 was > 100 µM (inactive); in the test on SNB-19, > 100 µM (inactive); in the test on OVCAR-5, > 100 µM (inactive); in the test on HOP-92 it was 56.8 µM (inactive); in the test with SN12C, > 100 µM (inactive); in the test with HL-60, > 100 µM (inactive). Besides, the GI50 in the test with SNB-75 was > 100 µM (inactive); in the test with HCC 2998, 0.577 µM (active); in the test on TK-10, > 100 µM (inactive); in the test with SF-295, > 100 µM (inactive); with DMS-114, > 100 µM (inactive); in the test on SK-MEL-5, > 100 µM (inactive). For the same molecule, the GI50 in the test with HT-29 and in the test on OVCAR-8 was > 100 µM (inactive) throughout.

Turning to `Cc1cc2c(c(C(N)=O)c1C)-c1cccc(F)c1C2=O`, the GI50 in the test on OVCAR-3, in the test on COLO 205, in the test on SNB-19, in the test with OVCAR-5, in the test with HOP-92 and in the test on SN12C was > 100 µM (inactive) in each case. Besides, the GI50 in the test with SNB-75 is 30.3 µM (inactive); in the test with HCC 2998 it was > 100 µM (inactive); in the test with TK-10, > 100 µM (inactive); in the test on SF-295, > 100 µM (inactive); in the test on DMS-114, > 100 µM (inactive); in the test on SK-MEL-5 it was > 100 µM (inactive). Further, the GI50 in the test with HT-29 and in the test with OVCAR-8 was > 100 µM (inactive) throughout.

Consider `O=c1cc(/C=C/c2ccccc2)c2ccc(O/C(=C\c3ccccc3)c3nc4ccccc4c(=O)o3)cc2o1`, for which the GI50 in the test on OVCAR-3 is 15 µM (inactive); in the test with COLO 205, 22.2 µM (inactive); in the test with SNB-19 it was 26 µM (inactive); with OVCAR-5, 44.9 µM (inactive); with HOP-92, 15.7 µM (inactive); in the test with SN12C it was 26.3 µM (inactive). In addition, the GI50 was 12.7 µM (inactive) in the test with HL-60; 33.3 µM (inactive) with HCC 2998; 51.4 µM (inactive) with TK-10; 26.7 µM (inactive) in the test with SF-295; 15.1 µM (inactive) with DMS-114; 16.3 µM (inactive) in the test on SK-MEL-5. Moreover, in the test with OVCAR-8, the GI50 was 28.2 µM (inactive).

Take `O=C(N/C(=C\c1ccccc1Cl)c1nc2ccccc2[nH]1)c1ccccc1`: the GI50 was 29.7 µM (inactive) with OVCAR-3; 34.6 µM (inactive) with COLO 205; 29.3 µM (inactive) with SNB-19; 30.8 µM (inactive) in the test on OVCAR-5; 10.3 µM (inactive) with HOP-92; 16.7 µM (inactive) in the test with SN12C. Besides, the GI50 is 25.7 µM (inactive) in the test with HL-60; 29.4 µM (inactive) in the test with HCC 2998; 76.4 µM (inactive) in the test on TK-10; 17 µM (inactive) with SF-295; 35 µM (inactive) in the test on DMS-114; 17.4 µM (inactive) in the test with SK-MEL-5. Besides, the values for the GI50 in the test on HT-29 and in the test with OVCAR-8 were 24.3 µM (inactive) and 27.5 µM (inactive), respectively.

In the case of `COC(=O)C[C@](O)(CCC(C)(C)O)C(=O)O[C@@H]1C(OC)=C[C@]23CCCN2CCc2cc4c(cc2[C@H]13)OCO4` [HARRINGTONINE], the GI50 in the test on OVCAR-3 is 0.0598 µM (active); with COLO 205 it was 0.0977 µM (active); with SNB-19, 0.0509 µM (active); in the test with OVCAR-5 it was 0.233 µM (active); in the test with HOP-92 it was 0.164 µM (active); with SN12C, 0.212 µM (active). The GI50 with HL-60 was 0.0403 µM (active); in the test with SNB-75 it was 0.209 µM (active); in the test on HCC 2998, 0.0239 µM (active); in the test on SF-295, 0.186 µM (active); in the test on DMS-114, 0.0152 µM (active); with SK-MEL-5, 0.0557 µM (active). Besides, the GI50 with HT-29 is 0.0661 µM (active); in the test with NCI-H226, 0.0306 µM (active); in the test with OVCAR-8 it was 0.16 µM (active).
